Measurements as given in patent US20010053350A1, “Cosmetic composition comprising N-ethyloxycarbonyl-4-amino-phenol and arbutin or its derivatives and/or ellagic acid or its derivatives” (L'OREAL, priority 1999, published 2001).
Converted amounts (≈) assume the structure as drawn.

Columns and labels:
fungal tyrosinase = test: Inhibition of the activity of fungal tyrosinase in vitro (absorbance at 475 nm, L-tyrosine/L-dopa); type: biochemical; conditions: for molar concentration at which an inhibition figure of 25% was observed: fungal tyrosinase, phosphate buffer, solvent ethanol (C1), water (C2)
Protocol: This test consisted in measuring the absorbance (optical density OD) at 475 nm, as a function of time, for each of the following active depigmenting principles:
N-ethyloxycarbonyl-4-para-aminophenol arbutin in solution (at different concentrations) in an appropriate solvent in the presence of a phosphate buffer, 1 ml of L-tyrosine at 2.0×10^−3 M in a phosphate buffer, 0.1 ml of L-dopa at 1.0×10^−4 M in a phosphate buffer and 50 μl of 1 g/l fungal tyrosinase solution in a phosphate buffer, compared with a control consisting of the solvent used, at the same concentration in the phosphate buffer. Percentage inhibition was subsequently determined by the following equation: [formula]
Subsequently, N-ethyloxycarbonyl-4-para-aminophenol and arbutin were mixed in concentrations C1 and C2 and N-ethyloxycarbonyl-4-para-aminophenol and ellagic acid were mixed in respective concentrations C1 and C3.

[1] = Upper solubility limit in the test solvent (DMSO); type: physicochemical; conditions: organic solvent or mixture

## CC(C)CCC[C@@H](C)[C@H]1CC[C@H]2[C@@H]3CC=C4C[C@@H](OC(=O)Nc5ccc(O)cc5)CC[C@]4(C)[C@H]3CC[C@]12C [N-cholesteryloxycarbonyl-4-para-aminophenol]
Fungal tyrosinase
  molar concentration at which an inhibition figure of 25% was observed: 66.7 µM

## CCOC(=O)Nc1ccc(O)cc1 [N-ethyloxycarbonyl-4-para-aminophenol]
Fungal tyrosinase
  molar concentration at which an inhibition figure of 25% was observed: 125 µM

## O=c1oc2c(O)c(O)cc3c(=O)oc4c(O)c(O)cc1c4c23 [ellagic acid]
[1]
  solubility: 135 µM (≈ 40.8 µg/mL)
Fungal tyrosinase; at concentration C3=1.35×10^−4 M (solubility limit in DMSO)
  inhibitory effect on tyrosinase activity: no inhibitory effect

## Oc1ccc(O)cc1 [hydroquinone]
Fungal tyrosinase
  molar concentration at which an inhibition figure of 25% was observed: 80 µM

## arbutin
Fungal tyrosinase
  molar concentration at which an inhibition figure of 25% was observed: 333 µM
